Test [1] addresses T1, PDZ (Homo sapiens, UniProt P78352).
T1 construct: expressed in transfected cells; host or cells: E. coli BL21(DE3) Star or Acella, plasmid VN419
As to conditions: cI-PDZ/rpoA-CRIPT pair; read-out: affinity; cited from earlier work.

Test [2] concerns the target T2, rpoA-stop (premature stop codon resulting in no fusion peptide) (UniProt P0A7Z4 1-248, limits assumed).
T2 construct: also called VN376
Description: bacterial two-hybrid coupled to Bxb1 DNA invertase; sequencing of colonies showed no inversion.

T2 sequence (P0A7Z4 1-248 limits assumed): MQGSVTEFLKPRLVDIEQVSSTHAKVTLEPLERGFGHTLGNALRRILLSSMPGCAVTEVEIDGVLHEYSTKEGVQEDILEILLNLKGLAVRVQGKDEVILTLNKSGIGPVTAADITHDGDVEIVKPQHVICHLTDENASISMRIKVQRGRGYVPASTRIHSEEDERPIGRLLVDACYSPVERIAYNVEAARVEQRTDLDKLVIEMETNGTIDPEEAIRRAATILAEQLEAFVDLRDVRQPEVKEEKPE

Regarding CRIPT [rpoA-CRIPT], the Kd in test [1] was 800 nM.

B1: cI-PDZ (DBD-target fusion) (other)
chain: MSTKKKPLTQEQLEDARRLKAIYEKKKNELGLSQESVADKMGMGQSGVGALFNGINALNAYNAALLAKILKVSVEEFSPSIAREIYEMYEAVSMQPSLRSEYEYPVFSHVQAGMFSPELRTFTKGDAERWVSTTKKASDSAFWLEVEGNSMTAPTGSKPSFPDGMLILVDPEQAVEPGDFCIARLGGDEFTFKKLIRDSGQVFLQPLNPQYPMIPCNESCSVVGKVIASQWPEETFGAAALGEEDIPREPRRIVIHRGSTGLGFNIVGGEDGEGIFISFILAGGPADLSGELRKGDQILSVNGVDLRNASHEQAAIALKNAGQTVTIIAQYKPEEYSRFEAK
notes: Expressed in E. coli BL21(DE3) Star or Acella cells from plasmid VN419
Regarding B1, the binding result in test [2] is reported as “no binding”.

Values taken from patent US20230183678A1, “IN-CELL CONTINUOUS TARGET-GENE EVOLUTION, SCREENING AND SELECTION” (COMMISSARIAT À L'ENERGIE ATOMIQUE ET AUX ENERGIES …, priority 2020, published 2023).
